From paper PMC8040043, “Synthesis, Inhibitory Activity, and In Silico Modeling of Selective COX-1 Inhibitors with a Quinazoline Core” (ACS Medicinal Chemistry Letters, 2021)

What was measured:
human recombinant COX-2 = target: T1, human recombinant COX-2 (Homo sapiens, UniProt P35354); assay: COX-2 in vitro enzymatic assay (PGE2 ELISA); type: biochemical; conditions: for inhibition at 20 µM: compound at 20 μM; for inhibition of COX-2 (in words): at 50 μM
T1 construct: purchased Sigma-Aldrich
T1 sequence (P35354 18-604): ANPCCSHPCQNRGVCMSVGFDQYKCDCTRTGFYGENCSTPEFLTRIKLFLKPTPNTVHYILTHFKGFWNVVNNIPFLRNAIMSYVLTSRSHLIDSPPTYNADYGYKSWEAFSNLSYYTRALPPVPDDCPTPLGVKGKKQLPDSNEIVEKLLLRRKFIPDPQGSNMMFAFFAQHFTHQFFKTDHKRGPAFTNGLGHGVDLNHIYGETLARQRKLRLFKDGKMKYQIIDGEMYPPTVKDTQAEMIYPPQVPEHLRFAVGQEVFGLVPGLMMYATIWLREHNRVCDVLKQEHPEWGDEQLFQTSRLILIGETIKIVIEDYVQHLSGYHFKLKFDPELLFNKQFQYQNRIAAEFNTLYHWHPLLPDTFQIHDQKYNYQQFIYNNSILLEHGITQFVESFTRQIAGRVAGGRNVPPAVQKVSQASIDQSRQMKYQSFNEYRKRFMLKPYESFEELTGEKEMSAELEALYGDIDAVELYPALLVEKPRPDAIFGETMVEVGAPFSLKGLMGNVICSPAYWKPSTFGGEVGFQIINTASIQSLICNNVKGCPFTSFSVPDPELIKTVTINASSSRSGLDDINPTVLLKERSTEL
Experimental: (§1) The inhibitory activity of compounds was tested using in vitro enzymatic assay. Ovine COX-1 (1 unit/reaction) or human recombinant COX-2 (0.5 unit/reaction; both enzymes Sigma-Aldrich, USA) was added to 180 µL of 100 mM Tris buffer (pH 8.0), containing 5 μM porcine hematin, 18 mM L-epinephrine, and 50 μM Na2EDTA. Ten µL of tested compound dissolved in DMSO or pure DMSO (as a blank) were added to the reaction.
(§2) Sigma-Aldrich, USA) was used as a reference inhibitor. After 5 min incubation at room temperature, reaction was initiated by 5 µL of arachidonic acid (10 µM) and incubated 20 min in 37°C. Then the reaction was stopped by 20 µL of formic acid (10% v/v). The concentration of prostaglandin E2 (PGE2) was measured with Prostaglandin E2 ELISA kit (Enzo Life Sciences, USA). Reaction mixture was diluted 1:15 in assay buffer (provided in the kit) and incubated according to the manufacturer instructions.
(§3) The concentration of PGE2 produced during the reaction was estimated according to absorbance […]
(§4) inhibitory activity was calculated as percentual inhibition of PGE2 production compared to blank. At first, the inhibitory activity of compounds was tested at 20 µM to see if there is any activity. IC50 […]
(§5) of COX-2. The level of percentual inhibition was chosen based on the percentual inhibition caused by […]
(§6) All the experiments were carried out in duplicates and repeated at least two times. To test whether increasing substrate concentration influences the activity of […]
(§7) reference compound. The inhibitory activity was calculated as percentual inhibition of PGE2 production compared to blank with respective concentration of AA. […]

Ovine COX-1 = target: T2, Ovine COX-1 (Ovis aries, UniProt P05979); assay: COX-1 in vitro enzymatic assay (PGE2 ELISA); type: biochemical; conditions: for inhibition at 20 µM: compound at 20 μM; for selectivity index (COX-2/COX-1): ratio of IC50 COX-2 / IC50 COX-1; for inhibitory activity in COX assays (in words): less than 50% inhibition on both COX isoforms considered inactive
T2 construct: purchased Sigma-Aldrich
T2 sequence (P05979 25-600): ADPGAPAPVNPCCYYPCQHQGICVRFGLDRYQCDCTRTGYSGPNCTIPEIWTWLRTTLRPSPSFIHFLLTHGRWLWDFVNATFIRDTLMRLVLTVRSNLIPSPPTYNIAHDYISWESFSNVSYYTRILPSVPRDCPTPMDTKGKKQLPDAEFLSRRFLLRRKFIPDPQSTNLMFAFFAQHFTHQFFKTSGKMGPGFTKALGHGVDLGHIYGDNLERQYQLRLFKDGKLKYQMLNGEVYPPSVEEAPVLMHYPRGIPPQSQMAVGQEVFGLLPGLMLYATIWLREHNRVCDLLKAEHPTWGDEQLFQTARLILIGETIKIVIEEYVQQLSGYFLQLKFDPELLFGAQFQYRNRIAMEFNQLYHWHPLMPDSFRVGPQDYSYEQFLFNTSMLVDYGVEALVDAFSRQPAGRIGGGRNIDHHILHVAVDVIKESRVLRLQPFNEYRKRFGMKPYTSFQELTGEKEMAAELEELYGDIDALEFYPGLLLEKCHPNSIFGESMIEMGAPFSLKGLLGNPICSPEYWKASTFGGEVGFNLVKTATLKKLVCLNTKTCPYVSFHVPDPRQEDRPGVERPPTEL
Experimental: as §1, §2, §3, §4, §5, §6, §7

Row | inhibition at 20 µM (human recombinant COX-2) | inhibition at 20 µM (Ovine COX-1) | SMILES | also measured
1 | 22.7% | 48.8% | COc1ccc(CNc2nc(Cl)nc3cc(Br)ccc23)cc1 [5a] | –
2 | 30.6% | 30.4% | Fc1ccc(CNc2nc(Cl)nc3cc(Br)ccc23)cc1F [5b] | –
3 | 7.04% | 34.1% | COc1ccc(CNc2nc(Cl)nc3cc(-c4ccc(OC)cc4)ccc23)cc1 [6a] | –
4 | 27.6% | 26.6% | COc1ccc(CNc2nc(Cl)nc3cc(-c4ccc(F)cc4)ccc23)cc1 [6b] | –
5 | 32.3% | 92.4% | COc1ccc(CNc2nc(Cl)nc3cc(-c4cccs4)ccc23)cc1 [6c] | IC50 (human recombinant COX-2): > 50 µM; inhibition of COX-2 (in words) (human recombinant COX-2): did not inhibit
6 | 26.5% | 31.6% | COc1ccc(-c2ccc3c(NCc4ccc(F)c(F)c4)nc(Cl)nc3c2)cc1 [6d] | –
7 | 39.9% | 96.5% | Fc1ccc(CNc2nc(Cl)nc3cc(-c4cccs4)ccc23)cc1F [6e] | IC50 (human recombinant COX-2): > 50 µM; inhibition of COX-2 (in words) (human recombinant COX-2): did not inhibit
8 | 0.8% | -3.35% | COc1ccc(CNc2nc(N3CCOCC3)nc3cc(-c4ccc(OC)cc4)ccc23)cc1 [7a] | –
9 | 19.4% | 6.91% | COc1ccc(CNc2nc(N3CCCC3)nc3cc(-c4ccc(OC)cc4)ccc23)cc1 [7b] | –
10 | 24.2% | -16.5% | COc1ccc(CNc2nc(N3CCNCC3)nc3cc(-c4ccc(OC)cc4)ccc23)cc1 [7c] | –
11 | -1.39% | -10.9% | CCN(CC)c1nc(NCc2ccc(OC)cc2)c2ccc(-c3ccc(OC)cc3)cc2n1 [7d] | –
12 | -7.39% | -5.92% | COc1ccc(CNc2nc(N3CCOCC3)nc3cc(-c4ccc(F)cc4)ccc23)cc1 [7e] | –
13 | 3.22% | 32.1% | COc1ccc(CNc2nc(N3CCCC3)nc3cc(-c4ccc(F)cc4)ccc23)cc1 [7f] | –
14 | -10.1% | -13.9% | COc1ccc(CNc2nc(N3CCNCC3)nc3cc(-c4ccc(F)cc4)ccc23)cc1 [7g] | –
15 | 4.43% | -1.12% | CCN(CC)c1nc(NCc2ccc(OC)cc2)c2ccc(-c3ccc(F)cc3)cc2n1 [7h] | –
16 | -5.36% | 14.8% | COc1ccc(CNc2nc(N3CCOCC3)nc3cc(-c4cccs4)ccc23)cc1 [7i] | inhibitory activity in COX assays (in words) (Ovine COX-1): inactive
17 | -2.17% | -38.1% | COc1ccc(CNc2nc(N3CCCC3)nc3cc(-c4cccs4)ccc23)cc1 [7j] | inhibitory activity in COX assays (in words) (Ovine COX-1): inactive
18 | 7.98% | 6.66% | COc1ccc(-c2ccc3c(NCc4ccc(F)c(F)c4)nc(N4CCOCC4)nc3c2)cc1 [7k] | –
19 | 8.82% | -23.6% | COc1ccc(-c2ccc3c(NCc4ccc(F)c(F)c4)nc(N4CCCC4)nc3c2)cc1 [7l] | –
20 | 11.7% | -6.25% | COc1ccc(-c2ccc3c(NCc4ccc(F)c(F)c4)nc(N4CCNCC4)nc3c2)cc1 [7m] | –
21 | 14.6% | 18% | CCN(CC)c1nc(NCc2ccc(F)c(F)c2)c2ccc(-c3ccc(OC)cc3)cc2n1 [7n] | –
22 | -3.62% | 66% | Fc1ccc(CNc2nc(N3CCOCC3)nc3cc(-c4cccs4)ccc23)cc1F [7o] | IC50 (human recombinant COX-2): > 50 µM; inhibition of COX-2 (in words) (human recombinant COX-2): did not inhibit
23 | 27.5% | 82.2% | Cc1ccc(Nc2nc(/C=C/c3ccccc3)nc3cc(Br)ccc23)cc1 [8a] | IC50 (human recombinant COX-2): > 50 µM
24 | 21.5% | 84.7% | Fc1ccc(CNc2nc(/C=C/c3ccccc3)nc3cc(Br)ccc23)cc1F [8b] | IC50 (human recombinant COX-2): > 50 µM; IC50 (Ovine COX-1): 1580 ± 890 nM; selectivity index (COX-2/COX-1) (Ovine COX-1): COX-1-selective

Continued, compound first:

Row | SMILES | inhibition at 20 µM (human recombinant COX-2) | inhibition at 20 µM (Ovine COX-1) | also measured
25 | Cc1ccc(Nc2nc(/C=C/c3ccccc3)nc3ccccc23)cc1C [3a] | -38.7% | 50.5% | –
26 | Cc1ccc(Nc2nc(/C=C/c3ccccc3)nc3ccccc23)cc1 [3b] | 3.54% | 95.2% | IC50 (human recombinant COX-2): 43 ± 10.3 µM
27 | COc1ccc(Nc2nc(/C=C/c3ccccc3)nc3ccccc23)cc1 [3c] | 2.64% | 95.3% | IC50 (human recombinant COX-2): 37.3 ± 9.36 µM
28 | C(=C\c1nc(N2CCNCC2)c2ccccc2n1)/c1ccccc1 [3d] | -4.94% | 31.2% | –
29 | CCOC(=O)c1ccc(Nc2nc(/C=C/c3ccccc3)nc3ccccc23)cc1 [3e] | -16.3% | 6.76% | –
30 | Fc1ccc(Nc2nc(/C=C/c3ccccc3)nc3ccccc23)cc1F [3f] | -14.5% | 27.6% | –
31 | O=[N+]([O-])c1ccc(Nc2nc(/C=C/c3ccccc3)nc3ccccc23)cc1 [3g] | -24.4% | 13.7% | –
32 | C(=C\c1nc(Nc2cccc3cccnc23)c2ccccc2n1)/c1ccccc1 [3h] | 3.02% | 31.5% | –
33 | C(=C\c1nc(Nc2ccccn2)c2ccccc2n1)/c1ccccc1 [3i] | -11.1% | 17.7% | –
34 | Cc1cc(Nc2nc(/C=C/c3ccccc3)nc3ccccc23)n[nH]1 [3j] | 13.8% | 41.6% | –
35 | Fc1ccc(CNc2nc(/C=C/c3ccccc3)nc3ccccc23)cc1F [3k] | 71.8% | 96.8% | IC50 (human recombinant COX-2): 10.1 ± 1.38 µM; IC50 (Ovine COX-1): 1900 ± 690 nM; selectivity index (COX-2/COX-1) (Ovine COX-1): 5.32
36 | COC(=O)CCNc1nc(/C=C/c2ccccc2)nc2ccccc12 [3l] | 14.9% | 46.2% | –
37 | CC(C)(C)c1ccc(Nc2nc(/C=C/c3ccccc3)nc3ccccc23)cc1 [3m] | 9.92% | 14% | –
38 | CCCCc1ccc(Nc2nc(/C=C/c3ccccc3)nc3ccccc23)cc1 [3n] | 5.59% | 12.8% | –
39 | CCCOc1ccc(Nc2nc(/C=C/c3ccccc3)nc3ccccc23)cc1 [3o] | -4.79% | 7.33% | –
40 | Cc1cc(C)c(Nc2nc(/C=C/c3ccccc3)nc3ccccc23)c(C)c1 [3p] | -22.9% | 38% | –
41 | Fc1cc(F)c(Nc2nc(/C=C/c3ccccc3)nc3ccccc23)c(F)c1 [3q] | 12.6% | 24.9% | –
42 | Cc1cc(F)cc(Br)c1Nc1nc(/C=C/c2ccccc2)nc2ccccc12 [3r] | -1.77% | 30.6% | –
43 | COc1cc(Nc2nc(/C=C/c3ccccc3)nc3ccccc23)cc(OC)c1 [3s] | -14.1% | 23.1% | –
44 | FC(F)(F)c1cc(Nc2nc(/C=C/c3ccccc3)nc3ccccc23)cc(C(F)(F)F)c1 [3t] | 10.8% | 20.8% | –
45 | FC(F)(F)c1ccc(Nc2nc(/C=C/c3ccccc3)nc3ccccc23)cc1 [3u] | 16.4% | 16.8% | –
46 | Nc1ccc(Oc2nc(/C=C/c3ccccc3)nc3ccccc23)cc1 [3v] | 3.5% | 94.3% | IC50 (human recombinant COX-2): > 50 µM; inhibition of COX-2 (in words) (human recombinant COX-2): did not inhibit
